Assay results from patent US11572590B2, “Methods for evaluating tumor cell spheroids using 3D microfluidic cell culture device” (Dana-Farber Cancer Institute, Inc., priority 2017, dated 2023).
Read-outs that look alike come from different tables or passages of the source.

Columns and labels:
Test in all cases: SelectScreen Kinase Profiling, single point inhibition and IC50 for off-target kinases
Assay type in all cases: biochemical
off-target kinases [1] = molecular target: off-target kinases (Homo sapiens, UniProt P49759); details: CLK1, ZLYTE, ATP Km app
off-target kinases [2] = molecular target: off-target kinases (Homo sapiens, UniProt O75676); details: RPS6KA4 (MSK2), ZLYTE, ATP Km app
off-target kinases [3] = molecular target: T1, off-target kinases (Homo sapiens, UniProt Q13237); details: PRKG2 (PKG2), ZLYTE, ATP Km app
T1 sequence (Q13237 1-762): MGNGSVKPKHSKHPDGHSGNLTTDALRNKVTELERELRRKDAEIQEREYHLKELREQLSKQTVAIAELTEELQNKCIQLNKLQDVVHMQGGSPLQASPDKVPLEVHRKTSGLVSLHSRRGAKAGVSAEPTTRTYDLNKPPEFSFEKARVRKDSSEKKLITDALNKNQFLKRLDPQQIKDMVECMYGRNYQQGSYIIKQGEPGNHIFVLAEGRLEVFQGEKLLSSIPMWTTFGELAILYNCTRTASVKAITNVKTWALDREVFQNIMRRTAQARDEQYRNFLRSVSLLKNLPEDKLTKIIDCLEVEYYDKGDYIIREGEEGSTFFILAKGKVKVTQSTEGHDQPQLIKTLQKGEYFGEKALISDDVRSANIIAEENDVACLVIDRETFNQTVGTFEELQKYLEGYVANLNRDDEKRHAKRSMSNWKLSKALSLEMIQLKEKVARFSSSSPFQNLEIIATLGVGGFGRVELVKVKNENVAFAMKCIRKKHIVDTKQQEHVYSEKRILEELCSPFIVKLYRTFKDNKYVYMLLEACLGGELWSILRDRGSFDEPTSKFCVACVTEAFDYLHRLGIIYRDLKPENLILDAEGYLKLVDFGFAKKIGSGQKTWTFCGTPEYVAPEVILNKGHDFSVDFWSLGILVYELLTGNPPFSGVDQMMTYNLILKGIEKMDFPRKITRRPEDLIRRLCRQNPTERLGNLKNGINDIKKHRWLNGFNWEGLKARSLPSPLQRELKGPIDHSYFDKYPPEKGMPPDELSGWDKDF

off-target kinases [4] = molecular target: off-target kinases (Homo sapiens, UniProt P29376); details: LTK (TYK1), ZLYTE, ATP Km app
off-target kinases (Homo sapiens, UniProt P29376), sequence (P29376 17-864): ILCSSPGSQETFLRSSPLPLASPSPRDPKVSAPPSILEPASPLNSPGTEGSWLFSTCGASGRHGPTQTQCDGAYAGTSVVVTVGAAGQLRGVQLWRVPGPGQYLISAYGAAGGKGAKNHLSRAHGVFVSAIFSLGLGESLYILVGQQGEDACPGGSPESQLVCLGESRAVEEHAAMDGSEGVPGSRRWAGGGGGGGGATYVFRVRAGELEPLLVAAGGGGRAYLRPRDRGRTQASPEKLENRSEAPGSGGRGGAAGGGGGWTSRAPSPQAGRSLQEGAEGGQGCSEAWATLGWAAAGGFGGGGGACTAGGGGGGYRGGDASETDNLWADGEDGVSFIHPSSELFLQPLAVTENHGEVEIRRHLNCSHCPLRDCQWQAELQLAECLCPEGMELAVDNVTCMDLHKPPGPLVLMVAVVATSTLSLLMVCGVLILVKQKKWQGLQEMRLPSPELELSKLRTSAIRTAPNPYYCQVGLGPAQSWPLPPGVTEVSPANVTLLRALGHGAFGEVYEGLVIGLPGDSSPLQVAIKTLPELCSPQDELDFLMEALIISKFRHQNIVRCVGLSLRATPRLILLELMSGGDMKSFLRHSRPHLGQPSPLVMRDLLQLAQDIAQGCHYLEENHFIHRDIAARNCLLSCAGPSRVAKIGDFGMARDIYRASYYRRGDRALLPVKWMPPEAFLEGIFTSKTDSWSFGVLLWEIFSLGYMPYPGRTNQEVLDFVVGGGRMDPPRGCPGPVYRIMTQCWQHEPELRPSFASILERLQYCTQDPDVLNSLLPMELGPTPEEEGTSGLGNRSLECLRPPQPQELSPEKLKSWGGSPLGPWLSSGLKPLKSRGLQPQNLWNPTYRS

off-target kinases (Homo sapiens, UniProt P49759), sequence (P49759 whole entry): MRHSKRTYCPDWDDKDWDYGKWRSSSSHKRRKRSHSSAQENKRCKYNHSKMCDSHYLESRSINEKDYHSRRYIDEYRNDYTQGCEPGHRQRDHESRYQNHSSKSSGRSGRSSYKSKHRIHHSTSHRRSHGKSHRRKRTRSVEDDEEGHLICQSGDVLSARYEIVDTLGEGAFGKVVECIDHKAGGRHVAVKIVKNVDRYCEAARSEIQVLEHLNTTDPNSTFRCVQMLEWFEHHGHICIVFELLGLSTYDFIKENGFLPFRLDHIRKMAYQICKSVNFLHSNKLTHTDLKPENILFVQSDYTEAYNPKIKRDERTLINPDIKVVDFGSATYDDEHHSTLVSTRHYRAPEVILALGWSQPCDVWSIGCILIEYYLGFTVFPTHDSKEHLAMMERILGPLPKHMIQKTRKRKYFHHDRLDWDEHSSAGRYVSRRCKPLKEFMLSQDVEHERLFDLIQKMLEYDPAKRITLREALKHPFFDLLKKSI
off-target kinases (Homo sapiens, UniProt O75676), sequence (O75676 whole entry): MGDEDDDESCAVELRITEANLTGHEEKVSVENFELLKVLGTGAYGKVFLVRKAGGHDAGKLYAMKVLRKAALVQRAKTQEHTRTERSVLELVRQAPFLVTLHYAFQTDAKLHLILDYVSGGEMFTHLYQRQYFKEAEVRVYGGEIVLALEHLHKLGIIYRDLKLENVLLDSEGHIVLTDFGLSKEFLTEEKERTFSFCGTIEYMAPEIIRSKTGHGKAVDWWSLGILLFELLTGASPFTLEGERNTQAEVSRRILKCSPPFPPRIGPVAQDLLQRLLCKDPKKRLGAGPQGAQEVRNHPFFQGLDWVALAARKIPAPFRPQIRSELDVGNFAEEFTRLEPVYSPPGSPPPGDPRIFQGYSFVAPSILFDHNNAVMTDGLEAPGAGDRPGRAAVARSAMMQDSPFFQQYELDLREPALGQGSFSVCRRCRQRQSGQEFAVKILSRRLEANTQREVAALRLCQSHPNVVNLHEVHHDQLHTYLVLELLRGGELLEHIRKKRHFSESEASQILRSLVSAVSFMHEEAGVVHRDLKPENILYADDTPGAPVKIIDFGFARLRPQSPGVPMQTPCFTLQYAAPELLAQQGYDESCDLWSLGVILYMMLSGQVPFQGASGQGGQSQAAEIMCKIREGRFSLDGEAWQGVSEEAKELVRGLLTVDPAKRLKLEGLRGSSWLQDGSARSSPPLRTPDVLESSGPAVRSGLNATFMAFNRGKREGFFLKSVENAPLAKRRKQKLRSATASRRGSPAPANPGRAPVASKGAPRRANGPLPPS

N#Cc1cc(-c2ncnc(Nc3ccc(N4CCN(C5COC5)CC4)cc3)n2)ccc1OC1CCOCC1 [Compound 1, 5-(4-((4-(4-(oxetan-3-yl)piperazin-1-yl)phenyl)amino)-1,3,5-triazin-2-yl)-2-((tetrahydro-2H-pyran-4-yl)oxy)benzonitrile]
inhibition (off-target kinases [1]; read-out: % Inhibition 1): 33%
inhibition (off-target kinases [1]; read-out: % Inhibition 2): 34%
inhibition (off-target kinases [1]; read-out: % Inhibition Avg): 33%
inhibition (off-target kinases [2]; read-out: % Inhibition 1): 0%
inhibition (off-target kinases [2]; read-out: % Inhibition 2): 2%
inhibition (off-target kinases [2]; read-out: % Inhibition Avg): 1%
inhibition (off-target kinases [3]; read-out: % Inhibition 1): 16%
inhibition (off-target kinases [3]; read-out: % Inhibition 2): 13%
inhibition (off-target kinases [3]; read-out: % Inhibition Avg): 14%
inhibition (off-target kinases [4]; read-out: % Inhibition 1): 5%
inhibition (off-target kinases [4]; read-out: % Inhibition 2): 7%
inhibition (off-target kinases [4]; read-out: % Inhibition Avg): 6%
